Reference: paper PMC6282105 (Molecular Pharmaceutics, 2018)

What was measured:
[1] = Stability of the building block toward SPPS reagents; type: physicochemical; settings: SPPS conditions
nitroreductase (NTR) = target: T1, nitroreductase (NTR) (Escherichia coli, UniProt P38489); assay: NTR-mediated removal of the CNBz moiety, followed by analytical HPLC; type: biochemical; settings: 0.3 equiv NTR, NADH as cofactor, analytical HPLC (Figure S2)
T1 sequence (P38489 1-217): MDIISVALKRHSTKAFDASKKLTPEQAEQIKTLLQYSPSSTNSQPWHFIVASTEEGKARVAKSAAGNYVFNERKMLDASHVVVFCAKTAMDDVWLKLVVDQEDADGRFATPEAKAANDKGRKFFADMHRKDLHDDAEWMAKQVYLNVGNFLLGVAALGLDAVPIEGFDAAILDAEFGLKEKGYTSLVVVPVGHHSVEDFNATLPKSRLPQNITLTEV

O=C(NCCCC(NC(=O)OCC1c2ccccc2-c2ccccc21)C(=O)O)NC(=O)OCc1ccc([N+](=O)[O-])cc1 (centres unmarked) [compound 1, 14-(9H-fluoren-9-yl)-1-(4-nitrophenyl)-3,5,12-trioxo-2,13-dioxa-4,6,11-triazatetradecane-10-carboxylic acid]
stability toward 20% piperidine and TFA [1]: very stable
time to full removal of the CNBz moiety (nitroreductase (NTR)): ≤ 5 min
